Data from patent US20220089592A1, “IMIDAZO[1,2-A]PYRIDINYL DERIVATIVES AS IRAK4 INHIBITORS” (priority 2019, published 2022).

Assays:
IRAK4 [1] = target: T1, IRAK4 (Homo sapiens, UniProt Q9NWZ3); experiment: 2-hour 10 μM ATP Biochemical Assay (MesoScale Detection format; IRAK4 phosphorylation of biotin labeled IRAK1 activation loop peptide); details: IRAK4 MSD BIOCHEMICAL (10 μM ATP) IC50 (μM), 1 nM IRAK4, 2 hours
T1 sequence (Q9NWZ3 1-460): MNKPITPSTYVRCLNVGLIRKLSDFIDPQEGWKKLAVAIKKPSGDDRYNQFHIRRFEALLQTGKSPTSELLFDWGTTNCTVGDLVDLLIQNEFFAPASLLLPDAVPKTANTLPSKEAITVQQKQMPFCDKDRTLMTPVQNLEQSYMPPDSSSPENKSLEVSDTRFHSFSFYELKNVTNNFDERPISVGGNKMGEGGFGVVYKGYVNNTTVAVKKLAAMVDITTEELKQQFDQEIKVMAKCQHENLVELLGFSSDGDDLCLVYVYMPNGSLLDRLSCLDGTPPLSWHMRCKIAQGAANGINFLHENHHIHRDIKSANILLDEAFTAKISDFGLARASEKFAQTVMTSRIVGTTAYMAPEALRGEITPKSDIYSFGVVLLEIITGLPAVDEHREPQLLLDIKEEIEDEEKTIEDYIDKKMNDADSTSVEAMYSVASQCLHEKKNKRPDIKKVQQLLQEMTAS
How it was run: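 Kinase reaction run 2 h at 10 μM ATP with biotinylated IRAK1 activation-loop peptide, quenched with EDTA. Phospho-peptide captured on streptavidin MSD plates and detected with anti-phosphothreonine rabbit antibody plus Sulfo-Tag anti-rabbit electrochemiluminescence.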

IRAK4 [2] = target: T1, IRAK4; experiment: 2-hour 1 mM ATP IRAK4 Biochemical assay (as above, but with 100 pM IRAK4 and 1 mM ATP); details: IRAK4 MSD BIOCHEMICAL (1 mM ATP) IC50 (μM), 100 pM IRAK4, 2 hours
How it was run: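 Run with 100 pM IRAK4 and 1 mM ATP for 2 hours, quenched with EDTA pH 8. Phosphorylated biotinylated peptide captured on streptavidin MSD plates and detected with anti-phosphothreonine antibody plus Sulfo-Tag secondary by electrochemiluminescence.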

| IC50 (IRAK4 [1]) [µM] | IC50 (IRAK4 [2]) [µM] | SMILES |
| --- | --- | --- |
| 0.002 | 0.007 | CC1(COc2cc3nc(CC4CCOC4)cn3cc2NC(=O)c2cccc(C(F)(F)F)n2)COC1 (stereo not drawn) [Example 163, N-(7-((3-methyloxetan-3-yl)methoxy)-2-((tetrahydrofuran-3-yl)methyl)imidazo[1,2-a]pyridin-6-yl)-6-(trifluoromethyl)picolinamide] |
| 0.001 | 0.001 | CCOc1cc2nc(C3C[C@@H](C)O[C@@H](C)C3)cn2cc1NC(=O)c1cccc(C(F)(F)F)n1 (relative stereo) [Example 250, N-(2-((2R*,6S*)-2,6-dimethyltetrahydro-2H-pyran-4-yl)-7-ethoxyimidazo[1,2-a]pyridin-6-yl)-6-(trifluoromethyl)picolinamide] |
| 0.001 | 0.001 | CCOc1cc2nc(C3CN(C)C3)cn2cc1NC(=O)c1cccc(C(F)(F)F)n1 [Example 65, N-(7-ethoxy-2-(1-methylazetidin-3-yl)imidazo[1,2-a]pyridin-6-yl)-6-(trifluoromethyl)picolinamide] |
